The source of these data is patent publication US11332459B2 (TEIJIN PHARMA LIMITED, priority 2017, dated 2022).

Where a name gives a salt, the structure may show the parent alone.

The target in the assay is T1, human TRPC6 (Homo sapiens, UniProt Q9Y210).
T1 construct: expressed in transfected cells
T1 sequence (Q9Y210 1-931): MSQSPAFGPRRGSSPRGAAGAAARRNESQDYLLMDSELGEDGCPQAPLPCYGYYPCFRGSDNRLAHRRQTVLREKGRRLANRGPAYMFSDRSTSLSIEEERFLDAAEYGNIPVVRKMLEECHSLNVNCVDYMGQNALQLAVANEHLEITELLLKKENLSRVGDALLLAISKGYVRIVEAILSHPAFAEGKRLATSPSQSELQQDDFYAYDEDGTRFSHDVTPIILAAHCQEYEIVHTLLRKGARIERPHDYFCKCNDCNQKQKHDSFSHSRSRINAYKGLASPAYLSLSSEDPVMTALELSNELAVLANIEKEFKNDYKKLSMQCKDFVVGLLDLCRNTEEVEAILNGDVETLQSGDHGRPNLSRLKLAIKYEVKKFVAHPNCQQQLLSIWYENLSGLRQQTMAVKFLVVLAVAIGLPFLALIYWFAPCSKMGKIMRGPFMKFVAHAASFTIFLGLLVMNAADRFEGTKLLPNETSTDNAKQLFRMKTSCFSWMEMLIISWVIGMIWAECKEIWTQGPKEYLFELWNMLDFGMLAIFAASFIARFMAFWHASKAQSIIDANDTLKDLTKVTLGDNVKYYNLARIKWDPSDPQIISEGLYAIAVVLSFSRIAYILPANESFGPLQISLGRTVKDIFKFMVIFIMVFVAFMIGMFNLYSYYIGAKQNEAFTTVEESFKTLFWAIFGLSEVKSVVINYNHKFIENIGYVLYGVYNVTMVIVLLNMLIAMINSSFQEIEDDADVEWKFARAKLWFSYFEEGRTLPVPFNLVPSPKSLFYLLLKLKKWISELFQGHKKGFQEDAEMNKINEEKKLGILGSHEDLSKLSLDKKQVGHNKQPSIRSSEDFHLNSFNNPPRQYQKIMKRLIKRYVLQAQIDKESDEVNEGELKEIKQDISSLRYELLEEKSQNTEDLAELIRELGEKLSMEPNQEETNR
Description: TRPC6 calcium flux assay (FLIPR, OAG-stimulated calcium influx). Type of assay: cell-based. Particulars: HEK293 cells stably transfected with human TRPC6, read-out: hTRPC6 Potency. Put shortly:
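IC50 derived by plotting background-corrected peak fluorescence (180 s window, normalized to OAG-triggered signal vs buffer) against dose. Stable human TRPC6 HEK293 line was dye-loaded, exposed to compound 25 min, then challenged with 50 uM final OAG in 2 mM Ca2+ HEPES buffer pH 7.2, 0.5% DMSO.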
On the technique in general: Calcium assays in cells follow changes in intracellular calcium, usually with a dye or a luminescent sensor.
Turning to `N#Cc1ccc(Cn2c(N3CC[C@@H](F)[C@H](N)C3)nc3cc(F)c(C(F)(F)F)cc32)nc1` [Example 22, 6-((2-((3R,4R)-3-amino-4-fluoropiperidin-1-yl)-5-fluoro-6-(trifluoromethyl)-1H-benzo[d]imidazol-1-yl)methyl)nicotinonitrile], the IC50 stood at 1.62 nM.

For the compound `CN(CC(F)(F)F)C(=O)Cn1c(N2CCCC3(CCCN3)C2)nc2ccc(F)cc21` (stereo not shown) [Example 472, 2-(6-fluoro-2-(1,7-diazaspiro[4.5]decan-7-yl)-1H-benzo[d]imidazol-1-yl)-N-methyl-N-(2,2,2-trifluoroethyl)acetamide], the IC50 was 383 nM.

Regarding `N#Cc1ccc(Cn2c(N3CC[C@H](F)[C@H](N)C3)nc3ccc(Cl)cc32)nc1` [Example 8, 6-((2-((3R,4S)-3-amino-4-fluoropiperidin-1-yl)-6-chloro-1H-benzo[d]imidazol-1-yl)methyl)nicotinonitrile], the IC50 stood at 0.283 nM.

For the compound `CS(=O)(=O)c1ccc2nc(N3CC[C@@H](F)[C@H](N)C3)n(Cc3ccc(Cl)cn3)c2c1` [Example 29, (3R,4R)-1-(1-((5-chloropyridin-2-yl)methyl)-6-(methylsulfonyl)-1H-benzo[d]imidazol-2-yl)-4-fluoropiperidin-3-amine], the IC50 was 44.8 nM.

With `N#Cc1ccc(Cn2c(N3CC[C@@H](F)[C@H](N)C3)nc3cc(OC(F)(F)F)ccc32)nc1` [Example 20, 6-((2-((3R,4R)-3-amino-4-fluoropiperidin-1-yl)-5-(trifluoromethoxy)-1H-benzo[d]imidazol-1-yl)methyl)nicotinonitrile], the IC50 came out at 1.92 nM.

As for `C[C@H](c1ccc(Cl)cn1)n1c(N2CC[C@@H](F)[C@H](N)C2)nc2cc(Cl)ccc21` [Example 219, (3R,4R)-1-(5-chloro-1-((R)-1-(5-chloropyridin-2-yl)ethyl)-1H-benzo[d]imidazol-2-yl)-4-fluoropiperidin-3-amine hydrochloride], the IC50 is 15.9 nM.

As to `C[C@@H](c1ccc(Cl)cn1)n1c(N2CC[C@@H](F)[C@H](N)C2)nc2ccccc21` [Example 216, (3R,4R)-1-(1-((S)-1-(5-chloropyridin-2-yl)ethyl)-1H-benzo[d]imidazol-2-yl)-4-fluoropiperidin-3-amine hydrochloride], the IC50 came out at 11.4 nM.

Consider `N[C@@H]1CN(c2nc3cc(F)cc(F)c3n2Cc2ncc(F)cn2)CC[C@H]1F` [Example 34, (3R,4R)-1-(5,7-difluoro-1-((5-fluoropyrimidin-2-yl)methyl)-1H-benzo[d]imidazol-2-yl)-4-fluoropiperidin-3-amine], for which the IC50 was determined as 68.9 nM.

For the compound `N#Cc1ccc(Cn2c(N3CC[C@H]4OCCN[C@@H]4C3)nc3ccccc32)nc1` [Example 131, 6-((2-((4aR,8aR)-hexahydro-2H-pyrido[4,3-b][1,4]oxazin-6(5H)-yl)-1H-benzimidazol-1-yl)methyl)-3-pyridinecarbonitrile], the IC50 amounted to 82.6 nM.

`CC1CN(c2nc3ccc(F)cc3n2CC(=O)N(C)CC(F)(F)F)CC1N` (stereo not shown) [Example 480, 2-(2-(3-amino-4-methylpyrrolidin-1-yl)-6-fluoro-1H-benzo[d]imidazol-1-yl)-N-methyl-N-(2,2,2-trifluoroethyl)acetamide]: the IC50 was 1200 nM.

Regarding `N#Cc1ccc2c(c1)CC[C@H]2n1c(N2CCC[C@H](N)C2)nc2ccccc21` [Example 423, (R)-1-(2-((S)-3-aminopiperidin-1-yl)-1H-benzo[d]imidazol-1-yl)-2,3-dihydro-1H-indene-5-carbonitrile], the IC50 was 151 nM.

Turning to `CN(CC(F)(F)F)C(=O)Cn1c(N2CC[C@@H](F)[C@H](N)C2)nc2ccc(C(F)(F)F)cc21` [Example 554, 2-(2-((3R,4R)-3-amino-4-fluoropiperidin-1-yl)-6-(trifluoromethyl)-1H-benzo[d]imidazol-1-yl)-N-methyl-N-(2,2,2-trifluoroethyl)acetamide], the IC50 is 10.9 nM.

On to `N#Cc1ccc(Cn2c(N3CCC(F)(F)[C@H](N)C3)nc3ccc(C(F)(F)F)cc32)nc1` [Example 108, 6-((2-((3R)-3-amino-4,4-difluoro-1-piperidinyl)-6-(trifluoromethyl)-1H-benzimidazol-1-yl)methyl)-3-pyridinecarbonitrile], for which the IC50 was determined as 0.433 nM.

Regarding `C[C@H](c1ccc(Cl)cn1)n1c(N2CC[C@@H](F)[C@H](N)C2)nc2cc(F)c(F)cc21` [Example 217, (3R,4R)-1-(1-((R)-1-(5-chloropyridin-2-yl)ethyl)-5,6-difluoro-1H-benzo[d]imidazol-2-yl)-4-fluoropiperidin-3-amine hydrochloride], the IC50 was 68.7 nM.

As for `N#Cc1ccc(Cn2c(N3CC[C@@H](F)[C@H](N)C3)nc3cc(C(F)(F)F)cnc32)nc1` [Example 519, 6-((2-((3R,4R)-3-amino-4-fluoropiperidin-1-yl)-6-(trifluoromethyl)-3H-imidazo[4,5-b]pyridin-3-yl)methyl)nicotinonitrile], the IC50 stood at 476 nM.

Consider `N#Cc1ccc(Cn2c(N3CC[C@@H](F)[C@H](N)C3)nc3c(Cl)cc(F)cc32)nc1` [Example 144, 6-((2-((3R,4R)-3-amino-4-fluoropiperidin-1-yl)-4-chloro-6-fluoro-1H-benzo[d]imidazol-1-yl)methyl)nicotinonitrile 2,2,2-trifluoroacetate], for which the IC50 amounted to 0.462 nM.

With `N[C@@H]1CN(c2nc3cc(Cl)ccc3n2CC(=O)N2CCC2)CC[C@H]1F` [Example 286, 2-(2-((3R,4R)-3-amino-4-fluoro-1-piperidinyl)-5-chloro-1H-benzimidazol-1-yl)-1-(1-azetidinyl)ethanone], the IC50 is 562 nM.

Regarding `C[C@H](CC#N)NC(=O)Cn1c(N2CC[C@@H](F)[C@H](N)C2)nc2ccc(F)cc21` [Example 670, 2-(2-((3R,4R)-3-amino-4-fluoropiperidin-1-yl)-6-fluoro-1H-benzo[d]imidazol-1-yl)-N-((R)-1-cyanopropan-2-yl)acetamide], the IC50 is 1120 nM.

Turning to `C[C@@H](c1ccc(Cl)c(Cl)c1)n1c(N2CC[C@@H](F)[C@H](N)C2)nc2cc(F)c(F)cc21` [Example 333, (3R,4R)-1-(1-((1S)-1-(3,4-dichlorophenyl)ethyl)-5,6-difluoro-1H-benzimidazol-2-yl)-4-fluoro-3-piperidinamine], the IC50 was determined as 3250 nM.

For `Cc1nc(Cn2c(N3CC[C@@H](F)[C@H](N)C3)nc3cc(F)c(F)cc32)oc1C` [Example 575, (3R,4R)-1-(1-((4,5-dimethyloxazol-2-yl)methyl)-5,6-difluoro-1H-benzo[d]imidazol-2-yl)-4-fluoropiperidin-3-amine], the IC50 came to 155 nM.

Regarding `CN(C(=O)Cn1c(N2CC[C@@H](F)[C@H](N)C2)nc2cc(F)c(F)cc21)[C@H]1CC[C@H](O)CC1` [Example 637, 2-(2-((3R,4R)-3-amino-4-fluoropiperidin-1-yl)-5,6-difluoro-1H-benzo[d]imidazol-1-yl)-N-((1r,4R)-4-hydroxycyclohexyl)-N-methylacetamide], the IC50 was determined as 341 nM.

As to `C[C@@H](c1ccc(C#N)cn1)n1c(N2CC[C@@H]3OCCN[C@H]3C2)nc2c(F)cc(F)cc21` [Example 269, 6-((1S)-1-(4,6-difluoro-2-((4aS,8aS)-hexahydro-2H-pyrido[4,3-b][1,4]oxazin-6(5H)-yl)-1H-benzimidazol-1-yl)ethyl)-3-pyridinecarbonitrile], the IC50 was 2.04 nM.
